Target: F508delCFTR (Homo sapiens, UniProt P13569, DEL508-508)
Experiment: SPQ assay in primary nasal cells collected by nasal brushing from CF patients
Assay type: cell-based
Set-up: Freshly isolated brushed nasal epithelial cells were collected by nasal brushing; endogenous in cells; host or cells: primary nasal epithelial cells from F508del-homozygous CF patients
Description: The compounds of formula I have marked effects on CFTR function. A representative number of compounds of formula I (Compounds IE1-IE4; Table I) were tested in comparison to cysteamine and amifostine through SPQ assay in F508delCFTR homozygous bronchial epithelial cell lines (CFBE41o-) transfected with F508delCFTR (FIG. 1) and in ex vivo in nasal cells collected by nasal brushing from CF patients (FIGS. 2A and B). Freshly isolated brushed nasal epithelial cells were collected by nasal brushing, as previously described (21, 21) from 10 F508del-CFTR homozygous CF patients and from 5 non-CF healthy volunteers recruited from staff at the same time points. Both patients and healthy volunteers gave written informed consent. […] Brushes with cells were immediately transferred into RPMI 1640 medium (Invitrogen) containing 1% penicillin-streptomycin (Lonza, 17-602E), in 15-ml sterilized tubes. The tubes were incubated at 37° C. for 2 h on a thermo shaker, to remove all cell from brushes; the brushes were then removed and the cells centrifuged at 800×g (2000 rpm) for 20 min. The supernatant fractions were discarded and the cell pellet treated with […] of trypsin-versene (EDTA) solution (Lonza, 17-161) for 4 min at 37° C. to disaggregate possible cell clusters. Trypsin solution was inactivated by adding 3 ml of serum-free Bronchial Epithelial cell Growth Medium BEGM (Clonetics, Lonza, CC3170). After centrifugation at 800×g (2000 rpm) for 10 min, cells were placed in […] 25 flasks (Sarstedt Ltd, CS300) with 10 ml of BEGM medium. Nonspecific epithelial cells were removed during the daily cell washing and medium changes.

Chain of F508delCFTR (P13569 with tags, fused parts or gaps DEL508-508): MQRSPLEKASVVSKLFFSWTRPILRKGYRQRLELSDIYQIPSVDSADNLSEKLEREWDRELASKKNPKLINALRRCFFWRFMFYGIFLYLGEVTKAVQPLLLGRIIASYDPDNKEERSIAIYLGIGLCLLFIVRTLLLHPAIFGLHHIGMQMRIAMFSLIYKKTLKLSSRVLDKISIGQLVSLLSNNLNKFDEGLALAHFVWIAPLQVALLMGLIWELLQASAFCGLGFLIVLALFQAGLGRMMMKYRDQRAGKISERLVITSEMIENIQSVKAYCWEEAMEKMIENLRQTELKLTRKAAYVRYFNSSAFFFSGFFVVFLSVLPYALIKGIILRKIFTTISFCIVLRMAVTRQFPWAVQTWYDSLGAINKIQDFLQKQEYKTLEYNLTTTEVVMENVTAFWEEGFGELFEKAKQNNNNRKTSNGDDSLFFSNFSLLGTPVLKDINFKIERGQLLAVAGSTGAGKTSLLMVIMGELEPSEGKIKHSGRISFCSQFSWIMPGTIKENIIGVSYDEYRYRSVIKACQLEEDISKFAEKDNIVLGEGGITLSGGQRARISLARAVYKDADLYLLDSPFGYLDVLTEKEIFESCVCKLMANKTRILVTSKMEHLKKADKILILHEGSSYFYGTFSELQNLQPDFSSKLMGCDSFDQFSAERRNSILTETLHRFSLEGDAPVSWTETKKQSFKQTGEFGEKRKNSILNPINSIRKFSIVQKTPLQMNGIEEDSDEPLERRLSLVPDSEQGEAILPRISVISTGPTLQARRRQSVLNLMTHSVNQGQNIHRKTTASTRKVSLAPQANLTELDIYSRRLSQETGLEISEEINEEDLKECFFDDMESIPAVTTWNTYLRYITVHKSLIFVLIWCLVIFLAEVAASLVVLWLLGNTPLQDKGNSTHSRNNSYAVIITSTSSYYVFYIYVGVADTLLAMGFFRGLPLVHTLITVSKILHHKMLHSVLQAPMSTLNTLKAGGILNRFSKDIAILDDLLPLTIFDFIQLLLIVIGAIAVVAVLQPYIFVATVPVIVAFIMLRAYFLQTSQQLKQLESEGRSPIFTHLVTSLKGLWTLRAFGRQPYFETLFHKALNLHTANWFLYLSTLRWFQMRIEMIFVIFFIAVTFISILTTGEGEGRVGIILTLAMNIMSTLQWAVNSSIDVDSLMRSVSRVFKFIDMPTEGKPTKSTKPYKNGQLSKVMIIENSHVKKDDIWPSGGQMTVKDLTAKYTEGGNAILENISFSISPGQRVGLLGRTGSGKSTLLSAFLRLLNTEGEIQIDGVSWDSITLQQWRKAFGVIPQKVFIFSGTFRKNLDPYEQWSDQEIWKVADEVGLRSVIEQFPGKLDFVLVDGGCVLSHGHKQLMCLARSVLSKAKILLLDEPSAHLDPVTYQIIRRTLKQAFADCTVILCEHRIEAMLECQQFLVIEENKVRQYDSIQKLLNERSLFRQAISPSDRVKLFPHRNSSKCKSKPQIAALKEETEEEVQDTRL

CFTR function after wash out with EGCG added (48 h after wash out, epigallocatechin gallate added, nasal primary cells): effect is preserved | CFTR function after wash out (48 h after wash out, nasal primary cells): loses its efficacy | Efficacy on CFTR function compared with VX-809 (VX-809 3 μM, FIG. 2A): more efficacious than VX-809 | CFTR function after wash out (up to 24 h after wash out, nasal cells): able to maintain CFTR function
SMILES: NCCCS [IE1, 3-aminopropane-1-thiol]

— patent US20200179312A1, “ANALOGUES OF CYSTEAMINE AS THERAPEUTIC AGENTS FOR CYSTIC FIBROSIS” (I.E.R.F.C. EUROPEAN INSTITUTE FOR CYSTIC FIBROSIS RESEARCH, priority 2018, published 2020)
